Reference: patent US20030064380A1, “Anergy-regulated molecules” (The Center For Blood Research, Inc., priority 2001, published 2003)

System: D5 Th1 T cell line
Assay: nucleic acid expression profile of D5 Th1 T cell line stimulated with 500 nM ionomycin, 1 μM CsA plus ionomycin or 20 nM PMA plus ionomycin; 11K chip, first replicate
Assay type: cell-based, murine
Parameters: expression level of Msa.15983.0_f_at / expression level of Msa.1669.0_f_at / expression level of Msa.18713.0_g_at / expression level of D86609_s_at / expression level of TC19211_at / expression level of TC21156_at / expression level of TC24045_at / expression level of TC30384_g_at / expression level of TC3225_at / expression level of TC38978_at / expression level of TC39080_at / expression level of TC17495_at: unit not given here
Protocol: D5 or primary T cells from NFAT1−/− or wild type DO11.10 transgenic mice were stimulated for 2, 6 or 16 hours with 500 nM ionomycin, 20 nM PMA plus 500 nM ionomycin, or 1 μM CsA plus 500 nM ionomycin. Total RNA was isolated with an RNeasy kit (QIAGEN). Ten μg of total RNA was quantitatively amplified and biotin-labeled as described (Byrne et al., (2000) “Preparation of mRNA for Expression Monitoring” Current Protocols in Molecular Biology (John Wiley & Sons, Inc.) pp. 22.22.21-22.22.13). Hybridization to GeneChips® (Affymetrix) displaying probes for 11,000 mouse genes/ESTs was performed at 40° C. overnight in a mix that included 10 μg fragmented RNA, 6× SSPE, 0.005% Triton X-100 and 100 μg/ml herring sperm DNA in a total volume of 200 μl. Chips were washed, stained with SA-PE and read using an Affymetrix GeneChip® scanner and accompanying gene expression software. Labeled bacterial RNAs of known concentration were spiked into each chip hybridization mix to generate an internal standard curve, allowing normalization between chips and conversion of raw hybridization intensity values to mRNA frequency (mRNA molecules per million).
Nucleic acid expression profiles were obtained from a T cell line at multiple time points and in various T cell states. The D5 Th1 T cell line was stimulated in three different ways: 1) ionomycin alone (e.g., causing the regulatory factor NFAT to move from the cytoplasm to the nucleus); 2) ionomycin+PMA (e.g., causing both NFAT and the transcription factor AP-1 to enter the nucleus); 3) ionomycin +cyclosporin A (CsA) (e.g., preventing NFAT from entering the nucleus in response to ionomycin). […] Cells were stimulated for 0, 2, 6, and 16 hours. RNA was isolated and analyzed on a nucleic acid chip with probes that monitor the expression of 11,000 nucleic acids located at unique addresses. The experiment was done twice (i.e., with two replicates, Rep. 1 and Rep. 2). Nucleic acid expression at the 2, 6 and 16 hour timepoints was compared to nucleic acid expression at 0 hours.
The nucleic acid expression data was stored in a computer database. A database query was used to identify all nucleic acids that were deemed “increasing” or “decreasing” in response to ionomycin (relative to the 0 hour sample) in at least one timepoint in Rep. 1, and the nucleic acids were also deemed “increasing” or “decreasing” in response to ionomycin in Rep. 2.
To test the hypothesis that NFAT in the absence of AP-1 and NFKB induced a genetic program of anergy, genes induced in D5 T cells by ionomycin stimulation alone were evaluated (FIGS. 1, 2 and 6). Samples from D5 cells stimulated with ionomycin plus CsA, which blocks anergy induction, and ionomycin plus PMA, which pharmacologically mimic complete stimulation through the TCR and CD28 were included. RNA was prepared from unstimulated D5 T cells and from cells stimulated for 2, 6 or 16 h under these three conditions, and gene transcription profiles were evaluated using Affymetrix oligonucleotide arrays (FIG. 6A).

C[C@H](CCC(=O)O)C[C@H](C)C[C@H](C)C(=O)/C=C(\O)[C@H](C)C[C@H](C)C/C=C/[C@@H](C)[C@@H](O)[C@@H](C)[C@@H](O)C[C@@H]1CC[C@@](C)([C@H]2CC[C@@](C)([C@@H](C)O)O2)O1 [Ionomycin, ionomycin]
expression level of D86609_s_at (2 h): 48
expression level of ET63436_at (2 h): 149
expression level of MIP1-B_at (2 h): 265.5
expression level of Msa.11439.0_s_at (2 h): 37
expression level of Msa.15983.0_f_at (2 h): 40
expression level of Msa.1669.0_f_at (2 h): 33
expression level of Msa.18713.0_g_at (2 h): 63
expression level of Msa.21745.0_s_at (2 h): 9
expression level of TC3225_at (2 h): 41
expression level of TC14671_g_at (2 h): 15
expression level of TC16364_at (2 h): 38
expression level of TC16828_at (2 h): 13
expression level of TC17132_at (2 h): 41
expression level of TC17495_at (2 h): 10
expression level of TC17558_at (2 h): 28
expression level of TC18221_at (2 h): 6
expression level of TC19211_at (2 h): 21
expression level of TC21156_at (2 h): 34
expression level of TC23346_s_at (2 h): 8
expression level of TC23450_s_at (2 h): 20
expression level of TC24045_at (2 h): 26
expression level of TC24067_at (2 h): 8
expression level of TC25965_at (2 h): 19
expression level of TC27326_g_at (2 h): 40
expression level of TC29889_at (2 h): 17
expression level of TC30384_g_at (2 h): 77
expression level of TC30935_at (2 h): 30
expression level of TC30992_s_at (2 h): 14
expression level of TC31681_at (2 h): 52
expression level of TC33206_at (2 h): 20
expression level of TC33833_at (2 h): 19
expression level of TC34186_at (2 h): 19
expression level of TC36089_at (2 h): 145
expression level of TC36583_at (2 h): 26
expression level of TC37631_at (2 h): 38
expression level of TC38094_at (2 h): 13
expression level of TC38978_at (2 h): 9
expression level of TC39012_at (2 h): 47
expression level of TC39080_at (2 h): 7
expression level of TC39762_at (2 h): 17
expression level of TC40487_g_at (2 h): 14
expression level of TC41014_at (2 h): 9
expression level of U44731_s_at (2 h): 80
expression level of X67914_s_at (2 h): 59
expression level of Z31202_s_at (2 h): 17
expression level of aa144045_s_at (2 h): 46
expression level of aa174748_at (2 h): 55
expression level of c81206_rc_at (2 h): 23
expression level of k00083_s_at (2 h): 54
expression level of x12531_s_at (2 h): 81
expression level of D86609_s_at (6 h): 21
expression level of ET63436_at (6 h): 82
expression level of MIP1-B_at (6 h): 102
expression level of Msa.11439.0_s_at (6 h): 31
expression level of Msa.15983.0_f_at (6 h): 33
expression level of Msa.1669.0_f_at (6 h): 38
expression level of Msa.18713.0_g_at (6 h): 35
expression level of Msa.21745.0_s_at (6 h): 6
expression level of TC3225_at (6 h): 44
expression level of TC14671_g_at (6 h): 19
expression level of TC16364_at (6 h): 42
expression level of TC16828_at (6 h): 48
expression level of TC17132_at (6 h): 54
expression level of TC17495_at (6 h): 9
expression level of TC17558_at (6 h): 26
expression level of TC18221_at (6 h): 8
expression level of TC19211_at (6 h): 17
expression level of TC21156_at (6 h): 33
expression level of TC23346_s_at (6 h): 11
expression level of TC23450_s_at (6 h): 12
expression level of TC24045_at (6 h): 21
expression level of TC24067_at (6 h): 23
expression level of TC25965_at (6 h): 18
expression level of TC27326_g_at (6 h): 33
expression level of TC29889_at (6 h): 15
expression level of TC30384_g_at (6 h): 73
expression level of TC30935_at (6 h): 27
expression level of TC30992_s_at (6 h): 4
expression level of TC31681_at (6 h): 28
expression level of TC33206_at (6 h): 8
expression level of TC33833_at (6 h): 8
expression level of TC34186_at (6 h): 26
expression level of TC36089_at (6 h): 122
expression level of TC36583_at (6 h): 20
expression level of TC37631_at (6 h): 27
expression level of TC38094_at (6 h): 7
expression level of TC38978_at (6 h): 9
expression level of TC39012_at (6 h): 45
expression level of TC39080_at (6 h): 14
expression level of TC39762_at (6 h): 41
expression level of TC40487_g_at (6 h): 12
expression level of TC41014_at (6 h): 15
expression level of U44731_s_at (6 h): 26
expression level of X67914_s_at (6 h): 62
expression level of Z31202_s_at (6 h): 30
expression level of aa144045_s_at (6 h): 39
expression level of aa174748_at (6 h): 23
expression level of c81206_rc_at (6 h): 16
expression level of k00083_s_at (6 h): 32
expression level of x12531_s_at (6 h): 34
expression level of D86609_s_at (16 h): 20
expression level of ET63436_at (16 h): 86
expression level of MIP1-B_at (16 h): 119
expression level of Msa.11439.0_s_at (16 h): 34
expression level of Msa.15983.0_f_at (16 h): 17
expression level of Msa.1669.0_f_at (16 h): 35
expression level of Msa.18713.0_g_at (16 h): 28
expression level of Msa.21745.0_s_at (16 h): 6
expression level of TC3225_at (16 h): 23
expression level of TC14671_g_at (16 h): 13
expression level of TC16364_at (16 h): 34
expression level of TC16828_at (16 h): 30
expression level of TC17132_at (16 h): 32
expression level of TC17495_at (16 h): 12
expression level of TC17558_at (16 h): 23
expression level of TC18221_at (16 h): 11
expression level of TC19211_at (16 h): 12
expression level of TC21156_at (16 h): 16
expression level of TC23346_s_at (16 h): 13
expression level of TC23450_s_at (16 h): 13
expression level of TC24045_at (16 h): 15
expression level of TC24067_at (16 h): 15
expression level of TC25965_at (16 h): 16
expression level of TC27326_g_at (16 h): 29
expression level of TC29889_at (16 h): 11
expression level of TC30384_g_at (16 h): 57
expression level of TC30935_at (16 h): 22
expression level of TC30992_s_at (16 h): 6
expression level of TC31681_at (16 h): 18
expression level of TC33206_at (16 h): 6
expression level of TC33833_at (16 h): 6
expression level of TC34186_at (16 h): 13
expression level of TC36089_at (16 h): 75
expression level of TC36583_at (16 h): 18
expression level of TC37631_at (16 h): 26
expression level of TC38094_at (16 h): 7
expression level of TC38978_at (16 h): 12
expression level of TC39012_at (16 h): 35
expression level of TC39080_at (16 h): 14
expression level of TC39762_at (16 h): 31
expression level of TC40487_g_at (16 h): 8
expression level of TC41014_at (16 h): 12
expression level of U44731_s_at (16 h): 17
expression level of X67914_s_at (16 h): 51
expression level of Z31202_s_at (16 h): 22
expression level of aa144045_s_at (16 h): 33
expression level of aa174748_at (16 h): 22
expression level of c81206_rc_at (16 h): 15
expression level of k00083_s_at (16 h): 35
expression level of x12531_s_at (16 h): 97
